Experimental data from patent US8530183B2, “Zinc sensors for cellular imaging” (The Board of Regents of the University of Texas System, priority 2010, dated 2013).

Tests used:
MIN6 cells [1] = assay: Epifluorescence ZIMIR imaging of KCl-stimulated insulin/Zn2+ release; assay type: cell-based, mouse; conditions: KCl 40 mM
Description: FIGS. 6A-E. ZIMIR imaging of insulin/Zn^2+ release. (FIGS. 6A-E) KCl stimulated insulin/Zn^2+ release in MIN6 cells. Example images of MIN6 cells (FIG. 6A, DIC/Normasky) before (FIG. 6B) and after KCl (40 mM, C) or Zn^2+ addition (1 μM, D). Time courses of ZIMIR signal changes (F/F0) in two example regions of interest (ROI, indicated in D by dashed lines) along the plasma membrane.
Cell culture and ZIMIR imaging by wide field fluorescence microscopy. Details of cell culture are described below. For cell imaging, we cultured cells in 35 mm petri dishes with glass-bottoms (MatTek, Ashland, Mass.). […] To image insulin/Zn^2+ secretion, we routinely included 10 μM of EDTA in SAB to chelate the residual Zn^2+ and to reduce the baseline fluorescence. […]
Membrane ZIMIR fluorescence intensity was measured by drawing regions of interest (ROIs) along the plasma membrane, and its time course was normalized against its baseline value after background subtraction, i.e., (F-Fbkg)/(F0-Fbkg), where Fbkg is the average background fluorescence intensity of a nearby area containing no cells. […] Wide field fluorescence microscopy was carried out on inverted fluorescence microscopes as described (Guo et al., 2008).
ZIMIR imaging by wide field fluorescence microscopy. […]

MIN6 cells [2] = assay: Cellular uptake and membrane labeling followed by confocal laser scanning microscopy; assay type: cell-based, mouse
Description: FIGS. 4A-F. ZIMIR labels plasma membranes of intact living cells rapidly, non-invasively and stably. ZIMIR (1 μM) was added to MIN6 cells in FIBS buffer (containing ˜1 μM Zn^2+ enhance fluorescence intensity). Confocal images (Ex 488 nm, Em 510-550 nm) were subsequently acquired at 2 min (FIG. 4A), 5 min (FIG. 4B), 10 min (FIG. 4C), and 20 min (FIG. 4D). Cells were then washed with FIBS buffer three times and imaged again at 21 min (FIG. 4E), and 140 min (FIG. 4F).
Cell culture and ZIMIR imaging by wide field fluorescence microscopy. Details of cell culture are described below. For cell imaging, we cultured cells in 35 mm petri dishes with glass-bottoms (MatTek, Ashland, Mass.). To label cells with ZIMIR, cells were washed with a Secretion Assay Buffer (SAB) containing 114 mM NaCl, 4.7 mM KCl, 1.2 mM KH2PO4, 2.5 mM CaCl2, 1.16 mM MgSO4, 3 mM glucose, and 20 mM HEPES (pH 7.4). The DMSO stock solution of ZIMIR. (1-2 mM) diluted in a small volume of SAB was added to cells to a final concentration of 1 μM. Cells were then incubated at ˜25° C. for 20 min and washed with SAB before imaging. To image insulin/Zn^2+ secretion, we routinely included 10 μM of EDTA in SAB to chelate the residual Zn^2+ and to reduce the baseline fluorescence. In addition, DPAS (2-4 μM) was added to SAB in some experiments to better resolve the dynamics of oscillatory insulin release.
ZIMIR uptake and Zn2+ response in live cells. To examine the cellular uptake of ZIMIR, the inventors used a mouse insulinoma cell line, MIN6 (Miyazaki et al., 1990). When ZIMIR was incubated with cells at 1 μM concentration, it rapidly adhered to the cell surface of intact living cells (data not shown). In order to test the specificity and stability of membrane labeling, the inventors used confocal laser scanning microscopy (CLSM) to follow the cellular uptake and distribution of ZIMIR in MIN6 cells (FIGS. 4A-F). Within 5 min after probe addition, there was already a clear accumulation of ZIMIR along the plasma membrane (FIGS. 4A-B). By 20 min, the cellular uptake of ZIMIR appeared to reach completion (FIGS. 4C-D). […]

CCCCCCCCCCCCN(CC(=O)O)Cc1c2oc3c(CN(CCCCCCCCCCCC)CC(=O)O)c(O)ccc3c(-c3cc(NCCN(CCc4ccccn4)Cc4ccccn4)ccc3C(=O)O)c-2ccc1=O [ZIMIR]
ZIMIR fluorescence change upon KCl stimulation (MIN6 cells [1]): robust enhancement in ZIMIR fluorescence | time to clear accumulation along the plasma membrane (MIN6 cells [2]; 1 μM ZIMIR, MIN6 cells, CLSM): ≤ 5 min | time to completion of cellular uptake (MIN6 cells [2]; 1 μM ZIMIR, MIN6 cells, CLSM): ≤ 20 min | membrane retention upon washing (MIN6 cells [2]; repetitive washings after labeling): did not change membrane fluorescence intensity
